≈ marks a conversion by molar mass, not a printed value.
Key:
Assay type in all cases: functional
Staphylococcus aureus [1] = assay: Potency index, ratio of MIC for daptomycin to MIC for test compound against daptomycin-non-susceptible Staphylococcus aureus 5003 incubated anaerobically at 37 degC for 48 hrs by agar dilution method
Staphylococcus aureus [2] = assay: Antimicrobial activity against daptomycin-non-susceptible Staphylococcus aureus 5060 incubated anaerobically at 37 degC for 48 hrs by agar dilution method; details: Staphylococcus aureus, 5060, 48 h
Staphylococcus aureus [3] = assay: Antimicrobial activity against daptomycin-non-susceptible Staphylococcus aureus 1145 incubated anaerobically at 37 degC for 48 hrs by agar dilution method; details: Staphylococcus aureus, 1145, 48 h
Staphylococcus aureus [4] = assay: Potency index, ratio of MIC for daptomycin to MIC for test compound against daptomycin-non-susceptible Staphylococcus aureus 5014 incubated anaerobically at 37 degC for 48 hrs by agar dilution method
Clostridioides difficile [5] = assay: Antimicrobial activity against daptomycin-resistant Clostridium difficile NAP1 incubated anaerobically at 37 degC for 48 hrs by agar dilution method; details: NAP1, 48 h
Staphylococcus aureus [6] = assay: Antimicrobial activity against daptomycin-non-susceptible Staphylococcus aureus 5080 incubated anaerobically at 37 degC for 48 hrs by agar dilution method; details: Staphylococcus aureus, 5080, 48 h
Staphylococcus aureus [7] = assay: Potency index, ratio of MIC for daptomycin to MIC for test compound against daptomycin-non-susceptible Staphylococcus aureus 42 incubated anaerobically at 37 degC for 48 hrs by agar dilution method
Clostridioides difficile [8] = assay: Antimicrobial activity against metronidazole-resistant Clostridium difficile
Staphylococcus aureus [9] = assay: Potency index, ratio of MIC for daptomycin to MIC for test compound against daptomycin-non-susceptible Staphylococcus aureus 5076 incubated anaerobically at 37 degC for 48 hrs by agar dilution method
Staphylococcus aureus [10] = assay: Antimicrobial activity against daptomycin-non-susceptible Staphylococcus aureus 5034 incubated anaerobically at 37 degC for 48 hrs by agar dilution method; details: Staphylococcus aureus, 5034, 48 h
Staphylococcus aureus [11] = assay: Antimicrobial activity against daptomycin-non-susceptible Staphylococcus aureus 5010 incubated anaerobically at 37 degC for 48 hrs by agar dilution method; details: Staphylococcus aureus, 5010, 48 h
Staphylococcus aureus [12] = assay: Potency index, ratio of MIC for daptomycin to MIC for test compound against daptomycin-non-susceptible Staphylococcus aureus 1146 incubated anaerobically at 37 degC for 48 hrs by agar dilution method
Staphylococcus aureus [13] = assay: Potency index, ratio of MIC for daptomycin to MIC for test compound against daptomycin-non-susceptible Staphylococcus aureus 1179 incubated anaerobically at 37 degC for 48 hrs by agar dilution method
Staphylococcus aureus [14] = assay: Antimicrobial activity against daptomycin-non-susceptible Staphylococcus aureus 1146 incubated anaerobically at 37 degC for 48 hrs by agar dilution method; details: Staphylococcus aureus, 1146, 48 h
Staphylococcus aureus [15] = assay: Potency index, ratio of MIC for daptomycin to MIC for test compound against daptomycin-non-susceptible Staphylococcus aureus 5004 incubated anaerobically at 37 degC for 48 hrs by agar dilution method
Staphylococcus aureus [16] = assay: Antimicrobial activity against daptomycin-non-susceptible Staphylococcus aureus 5004 incubated anaerobically at 37 degC for 48 hrs by agar dilution method; details: Staphylococcus aureus, 5004, 48 h
Staphylococcus aureus [17] = assay: Antimicrobial activity against daptomycin-non-susceptible Staphylococcus aureus 5076 incubated anaerobically at 37 degC for 48 hrs by agar dilution method; details: Staphylococcus aureus, 5076, 48 h
Staphylococcus aureus [18] = assay: Antimicrobial activity against daptomycin-non-susceptible Staphylococcus aureus 399 incubated anaerobically at 37 degC for 48 hrs by agar dilution method; details: Staphylococcus aureus, 399, 48 h
Staphylococcus aureus [19] = assay: Potency index, ratio of MIC for daptomycin to MIC for test compound against daptomycin-non-susceptible Staphylococcus aureus 5008 incubated anaerobically at 37 degC for 48 hrs by agar dilution method
Enterococcus faecalis = assay: Antimicrobial activity against daptomycin-resistant Enterococcus faecalis ATCC 49452 incubated anaerobically at 37 degC for 48 hrs by agar dilution method; details: ATCC 49452, 48 h
Staphylococcus aureus [20] = assay: Antimicrobial activity against daptomycin-non-susceptible Staphylococcus aureus 5091 incubated anaerobically at 37 degC for 48 hrs by agar dilution method; details: Staphylococcus aureus, 5091, 48 h
Staphylococcus aureus [21] = assay: Antimicrobial activity against daptomycin-non-susceptible Staphylococcus aureus 5014 incubated anaerobically at 37 degC for 48 hrs by agar dilution method; details: Staphylococcus aureus, 5014, 48 h
Staphylococcus aureus [22] = assay: Potency index, ratio of MIC for daptomycin to MIC for test compound against daptomycin-non-susceptible Staphylococcus aureus 1326 incubated anaerobically at 37 degC for 48 hrs by agar dilution method
Staphylococcus aureus [23] = assay: Antimicrobial activity against daptomycin-non-susceptible Staphylococcus aureus 5017 incubated anaerobically at 37 degC for 48 hrs by agar dilution method; details: Staphylococcus aureus, 5017, 48 h
Staphylococcus aureus [24] = assay: Antimicrobial activity against daptomycin-non-susceptible Staphylococcus aureus 5008 incubated anaerobically at 37 degC for 48 hrs by agar dilution method; details: Staphylococcus aureus, 5008, 48 h
Staphylococcus aureus [25] = assay: Antimicrobial activity against daptomycin-non-susceptible Staphylococcus aureus 5003 incubated anaerobically at 37 degC for 48 hrs by agar dilution method; details: Staphylococcus aureus, 5003, 48 h
Staphylococcus aureus [26] = assay: Potency index, ratio of MIC for daptomycin to MIC for test compound against daptomycin-non-susceptible Staphylococcus aureus 5059 incubated anaerobically at 37 degC for 48 hrs by agar dilution method
Staphylococcus aureus [27] = assay: Antimicrobial activity against daptomycin-non-susceptible Staphylococcus aureus 5005 incubated anaerobically at 37 degC for 48 hrs by agar dilution method; details: Staphylococcus aureus, 5005, 48 h
Staphylococcus aureus [28] = assay: Antimicrobial activity against daptomycin-non-susceptible Staphylococcus aureus 1326 incubated anaerobically at 37 degC for 48 hrs by agar dilution method; details: Staphylococcus aureus, 1326, 48 h
Staphylococcus aureus [29] = assay: Antimicrobial activity against daptomycin-non-susceptible Staphylococcus aureus 1179 incubated anaerobically at 37 degC for 48 hrs by agar dilution method; details: Staphylococcus aureus, 1179, 48 h
Staphylococcus aureus [30] = assay: Antimicrobial activity against daptomycin-non-susceptible Staphylococcus aureus 278 incubated anaerobically at 37 degC for 48 hrs by agar dilution method; details: Staphylococcus aureus, 278, 48 h
Staphylococcus aureus [31] = assay: Antimicrobial activity against daptomycin-non-susceptible Staphylococcus aureus 5016 incubated anaerobically at 37 degC for 48 hrs by agar dilution method; details: Staphylococcus aureus, 5016, 48 h
Staphylococcus aureus [32] = assay: Potency index, ratio of MIC for daptomycin to MIC for test compound against daptomycin-non-susceptible Staphylococcus aureus 5081 incubated anaerobically at 37 degC for 48 hrs by agar dilution method
Staphylococcus aureus [33] = assay: Potency index, ratio of MIC for daptomycin to MIC for test compound against daptomycin-non-susceptible Staphylococcus aureus 5017 incubated anaerobically at 37 degC for 48 hrs by agar dilution method
Enterococcus faecium = assay: Potency index, ratio of MIC for daptomycin to MIC for test compound against Enterococcus faecium ATCC 6569 incubated anaerobically at 37 degC for 48 hrs by agar dilution method
Staphylococcus aureus [34] = assay: Potency index, ratio of MIC for daptomycin to MIC for test compound against daptomycin-non-susceptible Staphylococcus aureus 5034 incubated anaerobically at 37 degC for 48 hrs by agar dilution method
Staphylococcus aureus [35] = assay: Potency index, ratio of MIC for daptomycin to MIC for test compound against daptomycin-non-susceptible Staphylococcus aureus 5005 incubated anaerobically at 37 degC for 48 hrs by agar dilution method

Q: `CCCCCc1ccc(/C(C)=C/C(=O)N[C@@H](Cc2c[nH]c3ccccc23)C(=O)N[C@H](CC(N)=O)C(=O)N[C@@H](CC(=O)O)C(=O)N[C@@H]2C(=O)NCC(=O)N[C@@H](CCCN)C(=O)N[C@@H](CC(=O)O)C(=O)N[C@H](C)C(=O)N[C@@H](CC(=O)O)C(=O)NCC(=O)N[C@H](CO)C(=O)N[C@@H]([C@@H](C)CC(=O)O)C(=O)N[C@@H](CC(=O)c3ccccc3N)C(=O)O[C@@H]2C)cc1` was tested. Which Ratio (Staphylococcus aureus [1]) did it give?
A: 2

Q: What about the MIC (Staphylococcus aureus [2]) of the same compound?
A: 1 mg/L (≈ 0.595 µM)

Q: What about the MIC (Staphylococcus aureus [3]) of the same compound?
A: 0.25 mg/L (≈ 0.149 µM)

Q: What about the Ratio (Staphylococcus aureus [4]) of the same compound?
A: 2

Q: And the MIC (Clostridioides difficile [5])?
A: 0.5 mg/L (≈ 0.297 µM)

Q: And the MIC (Staphylococcus aureus [6])?
A: 1 mg/L (≈ 0.595 µM)

Q: And the Ratio (Staphylococcus aureus [7])?
A: 2

Q: What about the MIC (Clostridioides difficile [8]) of the same compound?
A: 0.5 mg/L (≈ 0.297 µM)

Q: What about the Ratio (Staphylococcus aureus [9]) of the same compound?
A: 2

Q: What about the MIC (Staphylococcus aureus [10]) of the same compound?
A: 0.5 mg/L (≈ 0.297 µM)

Q: And the MIC (Staphylococcus aureus [11])?
A: 0.25 mg/L (≈ 0.149 µM)

Q: And the Ratio (Staphylococcus aureus [12])?
A: 2

Q: And the Ratio (Staphylococcus aureus [13])?
A: 2

Q: And the MIC (Staphylococcus aureus [14])?
A: 0.25 mg/L (≈ 0.149 µM)

Q: And the Ratio (Staphylococcus aureus [15])?
A: 2

Q: And the MIC (Staphylococcus aureus [16])?
A: 0.25 mg/L (≈ 0.149 µM)

Q: What about the MIC (Staphylococcus aureus [17]) of the same compound?
A: 0.5 mg/L (≈ 0.297 µM)

Q: What about the MIC (Staphylococcus aureus [18]) of the same compound?
A: 0.125 mg/L (≈ 0.0744 µM)

Q: What about the Ratio (Staphylococcus aureus [19]) of the same compound?
A: 2

Q: What about the MIC (Enterococcus faecalis) of the same compound?
A: 4 mg/L (≈ 2.38 µM)

Q: And the MIC (Staphylococcus aureus [20])?
A: 0.5 mg/L (≈ 0.297 µM)

Q: What about the MIC (Staphylococcus aureus [21]) of the same compound?
A: 0.25 mg/L (≈ 0.149 µM)

Q: What about the Ratio (Staphylococcus aureus [22]) of the same compound?
A: 2

Q: And the MIC (Staphylococcus aureus [23])?
A: 0.5 mg/L (≈ 0.297 µM)

Q: What about the MIC (Staphylococcus aureus [24]) of the same compound?
A: 0.5 mg/L (≈ 0.297 µM)

Q: What about the MIC (Staphylococcus aureus [25]) of the same compound?
A: 0.25 mg/L (≈ 0.149 µM)

Q: And the Ratio (Staphylococcus aureus [26])?
A: 2

Q: What about the MIC (Staphylococcus aureus [27]) of the same compound?
A: 1 mg/L (≈ 0.595 µM)

Q: What about the MIC (Staphylococcus aureus [28]) of the same compound?
A: 0.5 mg/L (≈ 0.297 µM)

Q: What about the MIC (Staphylococcus aureus [29]) of the same compound?
A: 0.25 mg/L (≈ 0.149 µM)

Q: What about the MIC (Staphylococcus aureus [30]) of the same compound?
A: 1 mg/L (≈ 0.595 µM)

Q: And the MIC (Staphylococcus aureus [31])?
A: 0.5 mg/L (≈ 0.297 µM)

Q: And the Ratio (Staphylococcus aureus [32])?
A: 2

Q: What about the Ratio (Staphylococcus aureus [33]) of the same compound?
A: 2

Q: And the Ratio (Enterococcus faecium)?
A: >8

Q: And the Ratio (Staphylococcus aureus [34])?
A: 2

Q: What about the Ratio (Staphylococcus aureus [35]) of the same compound?
A: 2

— ChEMBL document CHEMBL3576778, “Structure-Activity Relationship Studies of a Series of Semisynthetic Lipopeptides Leading to the Discovery of Surotomycin, a Novel Cyclic Lipopeptide Being Developed for the Treatment of Clostridium difficile-Associated Diarrhea” (J Med Chem, 2015)
